Experimental data: the supplement of paper PMC10307832

Columns and labels:
Test in all cases: relative viability (nuclei count vs DMSO), 5 days (fraction); higher = more cells survive
RAF265 + Pictilisib = compound: Cn1c(Nc2ccc(C(F)(F)F)cc2)nc2cc(Oc3ccnc(-c4ncc(C(F)(F)F)[nH]4)c3)ccc21 [RAF265] + CS(=O)(=O)N1CCN(Cc2cc3nc(-c4cccc5[nH]ncc45)nc(N4CCOCC4)c3s2)CC1 [Pictilisib] (partner 1 µM)
Outline: (§1)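 Relative viability equals treated-well nuclei counts divided by vehicle-well nuclei counts. Counts came from 4× images of lung cancer cell lines grown in 1536-well plates for 5 days after pin-tool dosing on the day after seeding. Dosing used one drug alone or a fixed anchor-drug dose plus five library-drug doses (not always all listed) in √10 steps, and values are medians of duplicate plates.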

IPA-3 + Tozasertib = compound: C1=CC=C2C(=C1)C=CC(=C2SSC3=C(C=CC4=CC=CC=C43)O)O [IPA-3] + Cc1cc(Nc2cc(N3CCN(C)CC3)nc(Sc3ccc(NC(=O)C4CC4)cc3)n2)n[nH]1 [Tozasertib] (partner 0.1 µM)
Outline: as §1

RAF265 + Bortezomib = compound: Cn1c(Nc2ccc(C(F)(F)F)cc2)nc2cc(Oc3ccnc(-c4ncc(C(F)(F)F)[nH]4)c3)ccc21 [RAF265] + CC(C)C[C@H](NC(=O)[C@H](Cc1ccccc1)NC(=O)c1cnccn1)B(O)O [Bortezomib] (partner 0.002 µM)
Outline: as §1

RAF265 + Olaparib = compound: Cn1c(Nc2ccc(C(F)(F)F)cc2)nc2cc(Oc3ccnc(-c4ncc(C(F)(F)F)[nH]4)c3)ccc21 [RAF265] + O=C(c1cc(Cc2n[nH]c(=O)c3ccccc23)ccc1F)N1CCN(C(=O)C2CC2)CC1 [Olaparib] (partner 8 µM)
Outline: as §1

Cell Line	relative viability (RAF265 + Pictilisib; first compound 0.01 µM)	relative viability (RAF265 + Pictilisib; first compound 0.03162 µM)	relative viability (RAF265 + Pictilisib; first compound 0.1 µM)	relative viability (RAF265 + Pictilisib; first compound 0.3162 µM)	relative viability (RAF265 + Pictilisib; first compound 1 µM)	relative viability (IPA-3 + Tozasertib; first compound 0.2 µM)	relative viability (IPA-3 + Tozasertib; first compound 0.6325 µM)	relative viability (IPA-3 + Tozasertib; first compound 2 µM)	relative viability (IPA-3 + Tozasertib; first compound 6.325 µM)	relative viability (IPA-3 + Tozasertib; first compound 20 µM)	relative viability (RAF265 + Bortezomib; first compound 0.01 µM)	relative viability (RAF265 + Bortezomib; first compound 0.03162 µM)	relative viability (RAF265 + Bortezomib; first compound 0.1 µM)	relative viability (RAF265 + Bortezomib; first compound 0.3162 µM)	relative viability (RAF265 + Bortezomib; first compound 1 µM)	relative viability (RAF265 + Olaparib; first compound 0.01 µM)	relative viability (RAF265 + Olaparib; first compound 0.03162 µM)	relative viability (RAF265 + Olaparib; first compound 0.1 µM)	relative viability (RAF265 + Olaparib; first compound 0.3162 µM)	relative viability (RAF265 + Olaparib; first compound 1 µM)
NCI-H3122	0.586	0.831	0.575	0.452	0.301	0.431	0.4	0.381	0.509	0.428	0.955	1.02	1.07	1.04	0.922	0.609	0.63	0.631	0.622	0.611
HOP-62	0.641	–	0.726	0.426	0.179	0.388	0.312	0.395	0.382	0.402	1.15	–	1.05	0.674	0.788	0.461	0.448	0.439	0.479	0.268
HCC-366	0.18	0.211	0.181	0.189	0.147	0.176	0.132	0.0972	0.141	0.0773	1.11	1.02	1.06	1	0.985	0.388	0.38	0.452	0.397	0.239
NCI-H2347	0.789	0.952	0.652	0.629	0.245	0.585	0.598	0.614	0.593	0.656	0.801	1.03	1.09	0.809	0.573	0.644	0.606	0.57	0.523	0.384
LXF-289	0.857	0.655	0.577	0.361	0.374	0.23	0.164	0.218	0.186	0.192	0.996	0.988	0.969	0.763	0.796	1.08	1.06	0.998	0.748	0.551
LU99A	0.324	0.269	0.233	0.21	0.187	0.325	0.255	0.213	0.267	0.239	1.18	1.11	0.697	0.605	0.409	0.268	0.283	0.226	0.185	0.152
PC-14	0.737	–	0.733	–	0.312	0.693	0.612	0.647	0.539	0.649	0.798	0.726	0.886	0.953	0.693	0.252	0.311	0.314	0.369	0.245
NCI-H2085	0.407	0.478	0.502	0.437	0.368	0.907	0.748	0.823	0.908	0.951	1.1	0.985	1.14	1.1	0.987	0.954	0.723	0.841	0.854	0.76
